Here are results for three molecules from patent publication US20180310552A1, “Composition comprising a safener, a fungicide and metalaxyl” (priority 2015, published 2018).

In experiment [1] the test system is Fusarium culmorum. Nature of the experiment: Fusarium culmorum (wheat)/seed treatment, greenhouse, 7 days at 20° C. The format is in vivo. The following applies: seed treatment. The source says: (§1) According to another aspect of the present invention, in the composition according to the invention, the compound ratio A/B, A/C or A/B/C may be advantageously chosen so as to produce a synergistic effect. A synergistic effect of fungicides is always present when the fungicidal activity of the active compound combinations exceeds the total of the activities of the active compounds when applied individually. The expected activity for a given combination of two or three active compounds can be calculated as follows (cf. Colby, S. R., “Calculating Synergistic and Antagonistic Responses of Herbicide Combinations”, Weeds 1967, 15, 20-22).
(§2) wherein • X denotes the efficacy when using active compound A at an application rate of m ppm (or g/ha), • Y denotes the efficacy when using active compound B (or C) at an application rate of n ppm (or g/ha), • Z denotes the efficacy when using active compound C at an application rate of r ppm (or g/ha), • E1 denotes the efficacy when using active compounds A and B at application rates of m and n ppm (or g/ha), and • E2 denotes the efficacy when using active compounds A and B and C at application rates of m and n and r ppm (or g/ha),
(§3) Here, the efficacy is determined in %. 0% means an efficacy which corresponds to that of the control, whereas an efficacy of 100% means that no infection is observed.
(§4) If the actual fungicidal action exceeds the calculated value, the action of the combination is superadditive, i.e. a synergistic effect is present. In this case, the actually observed efficacy must exceed the value calculated using the above formula for the expected efficacy (E1 or E2).
(§5) The test is performed under greenhouse conditions.
Active compounds solved in N-methyl-2-pyrrolidon, or combinations thereof were diluted with water to the desired dosages. Wheat seeds were treated with these preparations and sown in 7×7 cm pots filled with 1:1 mix of steamed field soil and sand, mixed with a wheat grain culture of Fusarium culmorum.
Pots were incubated in the greenhouse for 7 days at 20° C. […]

Experiment [2] relates to Fusarium culmorum. The experiment is described as follows: Fusarium culmorum (wheat)/seed treatment, greenhouse, 7 days at 15° C. (Example 5). It is filed as in vivo. The following applies: seed treatment.
Description: as §1, §2, §3, §4, §5
Commercially available disease control agents, active compounds solved in N-methyl-2-pyrrolidon, or combinations thereof were diluted with water to the desired dosages. Wheat seeds were treated with these preparations and sown in 6*6 cm pots containing 4 cm of a 1:1 mix of steamed field soil and sand, mixed with a wheat grain culture of Fusarium culmorum.
Pots were incubated in the greenhouse for 7 days at 15° C.
Assessment consisted of counting of emerged seedlings and diseased plants. 0% means an efficacy which corresponds to that of the untreated control (infection rate was 73%), while an efficacy of 100% means that all seedlings have emerged and are healthy.

For `CCOC(=O)C1=NN(c2ccc(Cl)cc2Cl)C(C)(C(=O)OCC)C1` (racemic) [Mefenpyr-diethyl, diethyl (RS)-1-(2,4-dichlorophenyl)-5-methyl-2-pyrazoline-3,5-dicarboxylate], the Efficacy in % is listed as 9% with Fusarium culmorum [1] (60 g a.i./dt), 9% in the experiment on Fusarium culmorum [2] (25 g a.i./kg seed) and 0% in the experiment on Fusarium culmorum [2] (50 g a.i./kg seed).

Consider `COCC(=O)N(c1c(C)cccc1C)C(C)C(=O)OC` (racemic) [Metalaxyl, methylN-(2,6-dimethylphenyl)-N-(methoxyacetyl)-DL-alaninate], for which the results for the Efficacy in % in the experiment on Fusarium culmorum [1] (6 g a.i./dt) and with Fusarium culmorum [2] (2 g a.i./kg seed) were 0% and 18%, respectively.

Turning to `OC(Cc1ccccc1Cl)(Cn1[nH]cnc1=S)C1(Cl)CC1` (stereo not shown) [Prothioconazole, 2-[2-(1-chlorocyclopropyl)-3-(2-chlorophenyl)-2-hydroxypropyl]-1,2-dihydro-3H-1,2,4-triazole-3-thione], the Efficacy in % with Fusarium culmorum [1] (16 g a.i./dt) is recorded as 45%; with Fusarium culmorum [2] (15 g a.i./kg seed), 64%.
